Common to all, as to format: nucleic-acid assay
For assay [1], the system named is Nucleic Acid. Put plainly: DNA hybridizing activity at single stranded RNA assessed as thermal stability of duplexes formed between compound and complimentary ssRNA by measuring melting temperature at 4 uM in presence of 10 mM pH 7.2 sodium phosphate buffer containing 100 mM NaCl by UV based melting experiment.
The subject of assay [2] is Nucleic Acid. Put plainly: DNA hybridizing activity at single stranded RNA assessed as thermal stability of duplexes formed between compound and complimentary ssRNA by measuring change in melting temperature at 4 uM in presence of 10 mM pH 7.2 sodium phosphate buffer containing 100 mM NaCl by UV based melting experiment relative to untreated control.
The subject of assay [3] is Nucleic Acid. Put plainly: DNA hybridizing activity at single stranded DNA assessed as thermal stability of duplexes formed between compound and complimentary ssDNA by measuring melting temperature at 4 uM in presence of 10 mM pH 7.2 sodium phosphate buffer containing 100 mM NaCl by UV based melting experiment.
The test system of assay [4] is Nucleic Acid. Nature of the assay: DNA hybridizing activity at 22 bp double stranded DNA assessed as thermal stability of duplexes formed between compound and complimentary dsDNA by measuring change in melting temperature at 1.5 uM in presence of 7 mM pH 5.5 sodium phosphate buffer containing 140 mM K, 10 mM MgCl2 by UV based melting experiment.
The test system of assay [5] is Nucleic Acid. Nature of the assay: DNA hybridizing activity at 22 bp double stranded DNA assessed as thermal stability of duplexes formed between compound and complimentary dsDNA by measuring melting temperature at 1.5 uM in presence of 7 mM pH 5.5 sodium phosphate buffer containing 140 mM K, 10 mM MgCl2 by UV based melting experiment.
In assay [6] the test system is Nucleic Acid. Nature of the assay: DNA hybridizing activity at single stranded DNA assessed as thermal stability of duplexes formed between compound and complimentary ssDNA by measuring change in melting temperature at 4 uM in presence of 10 mM pH 7.2 sodium phosphate buffer containing 100 mM NaCl by UV based melting experiment relative to untreated control.

Structures are written as SMILES.

For `Cc1cn([C@H]2C[C@H](OP(=O)(O)OC[C@H]3O[C@@H](n4cc(C)c(=O)[nH]c4=O)C[C@@H]3OP(=O)(O)OC[C@H]3O[C@@H](n4cc(C)c(=O)[nH]c4=O)C[C@@H]3O[P@](=O)(OC[C@H]3O[C@@H](n4cc(C)c(=O)[nH]c4=O)C[C@@H]3OP(=O)(O)OC[C@H]3O[C@@H](n4cc(C)c(=O)[nH]c4=O)C[C@@H]3OP(=O)(O)OC[C@H]3O[C@@H](n4cc(C)c(=O)[nH]c4=O)C[C@@H]3OP(=O)(O)OC[C@H]3O[C@@H](n4ccc(N)nc4=O)C[C@@H]3OP(=O)(O)OC[C@H]3O[C@@H](n4ccc(N)nc4=O)C[C@@H]3OP(=O)(O)OC[C@H]3O[C@@H](n4ccc(N)nc4=O)C[C@@H]3OP(=O)(O)O)SCCNCCN)[C@@H](COP(=O)(O)O[C@H]3C[C@H](n4ccc(N)nc4=O)O[C@@H]3COP(=O)(O)O[C@H]3C[C@H](n4ccc(N)nc4=O)O[C@@H]3COP(=O)(O)O[C@H]3C[C@H](n4ccc(N)nc4=O)O[C@@H]3CO)O2)c(=O)[nH]c1=O`, the midpoint of thermal melting (Tm) came out at 44 °C in the assay with Nucleic Acid [1], 40 °C in the assay on Nucleic Acid [3] and 25 °C with Nucleic Acid [5]. In addition, the ΔTm with Nucleic Acid [2] is -2 °C; in the assay on Nucleic Acid [4], -1 °C; with Nucleic Acid [6], -2 °C.
Take `Cc1cn([C@H]2C[C@H](OP(=O)(O)OC[C@H]3O[C@@H](n4cc(C)c(=O)[nH]c4=O)C[C@@H]3OP(=O)(O)OC[C@H]3O[C@@H](n4cc(C)c(=O)[nH]c4=O)C[C@@H]3O[P@@](=O)(OC[C@H]3O[C@@H](n4cc(C)c(=O)[nH]c4=O)C[C@@H]3OP(=O)(O)OC[C@H]3O[C@@H](n4cc(C)c(=O)[nH]c4=O)C[C@@H]3OP(=O)(O)OC[C@H]3O[C@@H](n4cc(C)c(=O)[nH]c4=O)C[C@@H]3OP(=O)(O)OC[C@H]3O[C@@H](n4ccc(N)nc4=O)C[C@@H]3OP(=O)(O)OC[C@H]3O[C@@H](n4ccc(N)nc4=O)C[C@@H]3OP(=O)(O)OC[C@H]3O[C@@H](n4ccc(N)nc4=O)C[C@@H]3OP(=O)(O)O)SCCCN3CCNCC3)[C@@H](COP(=O)(O)O[C@H]3C[C@H](n4ccc(N)nc4=O)O[C@@H]3COP(=O)(O)O[C@H]3C[C@H](n4ccc(N)nc4=O)O[C@@H]3COP(=O)(O)O[C@H]3C[C@H](n4ccc(N)nc4=O)O[C@@H]3CO)O2)c(=O)[nH]c1=O`: the melting temperature (Tm) was 45 °C with Nucleic Acid [1], 45 °C in the assay with Nucleic Acid [3] and 27 °C with Nucleic Acid [5]. Also, the ΔTm is -1 °C in the assay with Nucleic Acid [2], 2 °C in the assay with Nucleic Acid [4] and 3 °C in the assay with Nucleic Acid [6].
For the molecule `Cc1cn([C@H]2C[C@H](OP(=O)(O)OC[C@H]3O[C@@H](n4cc(C)c(=O)[nH]c4=O)C[C@@H]3OP(=O)(O)OC[C@H]3O[C@@H](n4cc(C)c(=O)[nH]c4=O)C[C@@H]3O[P@@](=O)(OC[C@H]3O[C@@H](n4cc(C)c(=O)[nH]c4=O)C[C@@H]3OP(=O)(O)OC[C@H]3O[C@@H](n4cc(C)c(=O)[nH]c4=O)C[C@@H]3OP(=O)(O)OC[C@H]3O[C@@H](n4cc(C)c(=O)[nH]c4=O)C[C@@H]3OP(=O)(O)OC[C@H]3O[C@@H](n4ccc(N)nc4=O)C[C@@H]3OP(=O)(O)OC[C@H]3O[C@@H](n4ccc(N)nc4=O)C[C@@H]3OP(=O)(O)OC[C@H]3O[C@@H](n4ccc(N)nc4=O)C[C@@H]3OP(=O)(O)O)SCCCCN)[C@@H](COP(=O)(O)O[C@H]3C[C@H](n4ccc(N)nc4=O)O[C@@H]3COP(=O)(O)O[C@H]3C[C@H](n4ccc(N)nc4=O)O[C@@H]3COP(=O)(O)O[C@H]3C[C@H](n4ccc(N)nc4=O)O[C@@H]3CO)O2)c(=O)[nH]c1=O`, the midpoint of thermal melting (Tm) with Nucleic Acid [1] was 45 °C; in the assay on Nucleic Acid [3], 44 °C; in the assay on Nucleic Acid [5] it was 27 °C. Besides, the thermal shift (ΔTm) in the assay on Nucleic Acid [2] is -1 °C; with Nucleic Acid [4] it was 2 °C; in the assay on Nucleic Acid [6], 2 °C.
Turning to `Cc1cn([C@H]2C[C@H](OP(=O)(O)OC[C@H]3O[C@@H](n4cc(C)c(=O)[nH]c4=O)C[C@@H]3OP(=O)(O)OC[C@H]3O[C@@H](n4cc(C)c(=O)[nH]c4=O)C[C@@H]3O[P@@](=O)(OC[C@H]3O[C@@H](n4cc(C)c(=O)[nH]c4=O)C[C@@H]3OP(=O)(O)OC[C@H]3O[C@@H](n4cc(C)c(=O)[nH]c4=O)C[C@@H]3OP(=O)(O)OC[C@H]3O[C@@H](n4cc(C)c(=O)[nH]c4=O)C[C@@H]3OP(=O)(O)OC[C@H]3O[C@@H](n4ccc(N)nc4=O)C[C@@H]3OP(=O)(O)OC[C@H]3O[C@@H](n4ccc(N)nc4=O)C[C@@H]3OP(=O)(O)OC[C@H]3O[C@@H](n4ccc(N)nc4=O)C[C@@H]3OP(=O)(O)O)SCCCCCN)[C@@H](COP(=O)(O)O[C@H]3C[C@H](n4ccc(N)nc4=O)O[C@@H]3COP(=O)(O)O[C@H]3C[C@H](n4ccc(N)nc4=O)O[C@@H]3COP(=O)(O)O[C@H]3C[C@H](n4ccc(N)nc4=O)O[C@@H]3CO)O2)c(=O)[nH]c1=O`, the values for the Tm in the assay on Nucleic Acid [1], in the assay with Nucleic Acid [3] and with Nucleic Acid [5] were 44 °C, 44 °C and 27 °C, respectively. The values for the ΔTm in the assay on Nucleic Acid [2], in the assay on Nucleic Acid [4] and with Nucleic Acid [6] were -2 °C, 2 °C and 2 °C, respectively.
Turning to `Cc1cn([C@H]2C[C@H](OP(=O)(O)OC[C@H]3O[C@@H](n4cc(C)c(=O)[nH]c4=O)C[C@@H]3OP(=O)(O)OC[C@H]3O[C@@H](n4cc(C)c(=O)[nH]c4=O)C[C@@H]3O[P@](=O)(OC[C@H]3O[C@@H](n4cc(C)c(=O)[nH]c4=O)C[C@@H]3OP(=O)(O)OC[C@H]3O[C@@H](n4cc(C)c(=O)[nH]c4=O)C[C@@H]3OP(=O)(O)OC[C@H]3O[C@@H](n4cc(C)c(=O)[nH]c4=O)C[C@@H]3OP(=O)(O)OC[C@H]3O[C@@H](n4ccc(N)nc4=O)C[C@@H]3OP(=O)(O)OC[C@H]3O[C@@H](n4ccc(N)nc4=O)C[C@@H]3OP(=O)(O)OC[C@H]3O[C@@H](n4ccc(N)nc4=O)C[C@@H]3OP(=O)(O)O)SCCCCCN)[C@@H](COP(=O)(O)O[C@H]3C[C@H](n4ccc(N)nc4=O)O[C@@H]3COP(=O)(O)O[C@H]3C[C@H](n4ccc(N)nc4=O)O[C@@H]3COP(=O)(O)O[C@H]3C[C@H](n4ccc(N)nc4=O)O[C@@H]3CO)O2)c(=O)[nH]c1=O`, the midpoint of thermal melting (Tm) in the assay on Nucleic Acid [1] worked out at 42 °C; in the assay on Nucleic Acid [3], 39 °C; with Nucleic Acid [5], 24 °C. For the same molecule, the ΔTm is -4 °C with Nucleic Acid [2], -2 °C in the assay on Nucleic Acid [4] and -3 °C in the assay on Nucleic Acid [6].
On to `Cc1cn([C@H]2C[C@H](OP(=O)(O)OC[C@H]3O[C@@H](n4cc(C)c(=O)[nH]c4=O)C[C@@H]3OP(=O)(O)OC[C@H]3O[C@@H](n4cc(C)c(=O)[nH]c4=O)C[C@@H]3O[P@@](=O)(OC[C@H]3O[C@@H](n4cc(C)c(=O)[nH]c4=O)C[C@@H]3OP(=O)(O)OC[C@H]3O[C@@H](n4cc(C)c(=O)[nH]c4=O)C[C@@H]3OP(=O)(O)OC[C@H]3O[C@@H](n4cc(C)c(=O)[nH]c4=O)C[C@@H]3OP(=O)(O)OC[C@H]3O[C@@H](n4ccc(N)nc4=O)C[C@@H]3OP(=O)(O)OC[C@H]3O[C@@H](n4ccc(N)nc4=O)C[C@@H]3OP(=O)(O)OC[C@H]3O[C@@H](n4ccc(N)nc4=O)C[C@@H]3OP(=O)(O)O)SCCN)[C@@H](COP(=O)(O)O[C@H]3C[C@H](n4ccc(N)nc4=O)O[C@@H]3COP(=O)(O)O[C@H]3C[C@H](n4ccc(N)nc4=O)O[C@@H]3COP(=O)(O)O[C@H]3C[C@H](n4ccc(N)nc4=O)O[C@@H]3CO)O2)c(=O)[nH]c1=O`, for which the figures for the Tm in the assay on Nucleic Acid [1], in the assay with Nucleic Acid [3] and in the assay with Nucleic Acid [5] were 45 °C, 45 °C and 29 °C, respectively. Further, the results for the ΔTm in the assay with Nucleic Acid [2], in the assay on Nucleic Acid [4] and with Nucleic Acid [6] were -1 °C, 4 °C and 3 °C, respectively.
